“Also recorded” adds a separate entry of the source. Like-named read-outs stand apart in the source and are kept apart here. Each block holds one compound with its values, some of them ahead of it.
Assays:
GABABR1b/GABABR2 [1] = molecular target: T1, GABABR1b/GABABR2 (Rattus norvegicus, UniProt Q9Z0U4); assay: GIRK currents in HEK-293 cells transiently transfected with GABABR1b/GABABR2 + GIRKs (whole-cell patch clamp); format: cell-based; set-up: ligated to a PCR fragment containing the missing base pairs to obtain the full length clone; expressed in transfected cells; conditions: HEK-293 doubly transfected cells; CGP55845 at 1 μM, Ba++ 100 μM
T1 sequence (Q9Z0U4 1-844 isoform Q9Z0U4-3, one chain of several): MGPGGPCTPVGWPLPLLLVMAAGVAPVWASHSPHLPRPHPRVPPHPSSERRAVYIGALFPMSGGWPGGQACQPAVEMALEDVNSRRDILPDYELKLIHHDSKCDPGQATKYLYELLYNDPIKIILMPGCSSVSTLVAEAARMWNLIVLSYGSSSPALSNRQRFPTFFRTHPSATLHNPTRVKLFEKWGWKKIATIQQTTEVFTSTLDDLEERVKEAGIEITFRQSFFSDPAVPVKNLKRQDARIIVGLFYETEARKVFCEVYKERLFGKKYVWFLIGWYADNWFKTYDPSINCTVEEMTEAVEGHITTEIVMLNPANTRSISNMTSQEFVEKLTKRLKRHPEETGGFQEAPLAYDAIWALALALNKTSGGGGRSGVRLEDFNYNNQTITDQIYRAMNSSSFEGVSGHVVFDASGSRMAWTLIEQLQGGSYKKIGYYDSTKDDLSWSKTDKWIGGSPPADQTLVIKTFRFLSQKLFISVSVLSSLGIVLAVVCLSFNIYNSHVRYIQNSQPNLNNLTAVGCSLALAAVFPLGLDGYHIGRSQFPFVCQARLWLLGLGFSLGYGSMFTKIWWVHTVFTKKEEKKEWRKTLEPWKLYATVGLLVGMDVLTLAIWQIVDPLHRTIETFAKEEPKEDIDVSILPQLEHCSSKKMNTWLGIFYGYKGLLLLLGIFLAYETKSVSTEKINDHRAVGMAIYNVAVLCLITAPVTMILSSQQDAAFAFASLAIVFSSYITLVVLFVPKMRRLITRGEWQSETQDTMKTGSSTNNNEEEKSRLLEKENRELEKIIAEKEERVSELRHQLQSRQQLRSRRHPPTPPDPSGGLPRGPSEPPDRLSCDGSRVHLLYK

[2] = aged rats; cited from earlier work
[3] = rhesus monkeys; cited from earlier work
GABABR1 = GABABR1 (Rattus norvegicus, UniProt Q9Z0U4); assay: Radioligand binding, [3H]-CGP54626, membranes of COS-7 or HEK293 cells expressing GABABR1; conditions: for pKi: Displacement of [3H]-CGP54626 from COS-7 cells expressing GABABR1
GABABR1, sequence (Q9Z0U4 1-844 isoform Q9Z0U4-3): as the sequence (Q9Z0U4 1-844 isoform Q9Z0U4-3, one chain of several) above

GABABR1/R2 = GABABR1/R2 (Rattus norvegicus, UniProt Q9Z0U4); assay: Radioligand binding, membranes from cells co-transfected with GABABR1/R2
GABABR1/R2, sequence (Q9Z0U4 1-844 isoform Q9Z0U4-3, one chain of several): as above

GABABR1b/GABABR2 [4] = molecular target: T1, GABABR1b/GABABR2; assay: GIRK currents in Xenopus oocytes expressing GABABR1b/GABABR2 + GIRKs (voltage clamp); format: cell-based; set-up: ligated to a PCR fragment containing the missing base pairs to obtain the full length clone; linearized DNA plasmids containing the complete coding region of the gene; expressed in transfected cells; host or cells: Xenopus laevis oocytes, mRNA injection; conditions: for pKB: GABABR1 + GABABR2, oocytes, antagonist, measured using GABA as agonist, n = 4-6 oocytes; for Shift of the GABA concentration-response curve: CGP55845 at 50 nM, CGP54626 at 5 μM, FIG. 15B
Description: Human heart cDNA was used as template together with the primers
Dual electrode voltage clamp (“GeneClamp”, Axon Instruments Inc., Foster City, Calif.) is performed using 3 M KCl-filled glass microelectrodes having resistances of 1-3 Mohms. […] Experiments are carried out at room temperature.
Fits were made with a Marquardt-Levenberg non-linear least-squares curve fitting algorithm.

rat GABABR1/rat GABABR2 = rat GABABR1/rat GABABR2 (Rattus norvegicus, UniProt Q9Z0U4); assay: Microphysiometry (extracellular acidification) in CHO cells co-expressing rat GABABR1/rat GABABR2; conditions: 100 nM CGP55845, pretreatment with PTX
rat GABABR1/rat GABABR2, sequence (Q9Z0U4 1-844 isoform Q9Z0U4-3, one chain of several): as above

GABABR2 = molecular target: T2, GABABR2 (Rattus norvegicus, UniProt O88871); assay: Radioligand binding, membranes of HEK293 or COS-7 cells expressing GABABR2
T2 sequence (O88871 41-940): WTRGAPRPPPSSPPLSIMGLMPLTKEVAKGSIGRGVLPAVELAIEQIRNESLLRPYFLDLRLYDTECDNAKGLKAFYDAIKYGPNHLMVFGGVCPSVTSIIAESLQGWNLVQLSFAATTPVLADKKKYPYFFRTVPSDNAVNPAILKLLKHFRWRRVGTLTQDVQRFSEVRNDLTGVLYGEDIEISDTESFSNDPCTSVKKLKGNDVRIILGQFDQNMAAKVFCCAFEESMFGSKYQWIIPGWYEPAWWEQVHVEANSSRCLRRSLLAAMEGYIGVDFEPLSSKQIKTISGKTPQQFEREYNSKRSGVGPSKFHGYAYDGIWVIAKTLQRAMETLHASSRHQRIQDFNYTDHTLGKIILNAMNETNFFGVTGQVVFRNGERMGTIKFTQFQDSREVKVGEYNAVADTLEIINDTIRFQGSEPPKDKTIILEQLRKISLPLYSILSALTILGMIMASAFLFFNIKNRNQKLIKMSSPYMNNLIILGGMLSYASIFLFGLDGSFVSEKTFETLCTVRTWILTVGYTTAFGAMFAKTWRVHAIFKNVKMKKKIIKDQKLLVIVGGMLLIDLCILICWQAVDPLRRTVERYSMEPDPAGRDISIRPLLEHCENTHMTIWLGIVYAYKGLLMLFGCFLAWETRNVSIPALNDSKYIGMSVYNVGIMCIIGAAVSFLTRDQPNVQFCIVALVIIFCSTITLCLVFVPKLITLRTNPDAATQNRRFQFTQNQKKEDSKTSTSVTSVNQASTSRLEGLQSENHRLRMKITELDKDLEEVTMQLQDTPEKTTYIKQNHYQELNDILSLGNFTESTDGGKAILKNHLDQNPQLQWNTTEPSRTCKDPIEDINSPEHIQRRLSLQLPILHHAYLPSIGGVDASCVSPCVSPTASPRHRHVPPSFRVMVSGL

[5] = rat, in vivo; cited from earlier work
GABA receptors = conditions: in vivo; cited from earlier work
rat GABABR2 (rat) [6] = molecular target: rat GABABR2 (rat) (UniProt O88871); assay: cell-based or functional assay
rat GABABR2 (rat) [7] = molecular target: rat GABABR2 (rat) (UniProt O88871); assay: cell-based or functional assay; remark: listed apart in the source

Compound: [Ba+2] [Ba^++]
Block of GABA-elicited currents (GABABR1b/GABABR2 [1]): completely blocked

Compound: CCCCP(=O)(O)CCCN [CGP36742]
Learning performance [2]: improve learning performance
Performance in conditioned spatial color task [3]: improve

Compound: C[C@H](NC[C@H](O)CP(=O)(O)CC1CCCCC1)c1ccc(Cl)c(Cl)c1 [CGP54626]
pKi (GABABR1): 8.95
Binding profile compared with GABABR1 alone (GABABR1/R2): not different from those transfected with GABABR1 alone
pKB (GABABR1b/GABABR2 [4]): 7.48
Shift of the GABA concentration-response curve (GABABR1b/GABABR2 [4]; oocytes): Right-ward shifts

pKi (GABABR1): 8.7
pKB (GABABR1b/GABABR2 [4]): 8.60
Block of currents stimulated by GABA (GABABR1b/GABABR2 [4]; oocytes, CGP55845 1 μM, reversible): completely blocked
Shift of the GABA concentration-response curve (GABABR1b/GABABR2 [4]; oocytes): Right-ward shifts
Block of baclofen-stimulated acidification response (rat GABABR1/rat GABABR2): blocked
Compound: C[C@H](NC[C@H](O)CP(=O)(O)Cc1ccccc1)c1ccc(Cl)c(Cl)c1 [CGP55845]
Block of GABA-elicited currents (GABABR1b/GABABR2 [1]): completely blocked; also recorded: abolished
Binding profile compared with GABABR1 alone (GABABR1/R2): not different from those transfected with GABABR1 alone

Compound: CC1(C)CO[C@@H](CC(=O)O)CN1 [SCH-50911]
Binding profile compared with GABABR1 alone (GABABR1/R2): not different from those transfected with GABABR1 alone

Compound: C[C@H](NC[C@H](O)CP(=O)(O)CC1CCCCC1)c1ccc(Cl)c(Cl)c1 [[^3H]-CGP54626]
Labeling of membranes by radioligand (GABABR1; HEK293 or COS-7 cells expressing GABABR1): labeled
Labeling of membranes by radioligand (GABABR2): not those expressing GABABR2

Compound: NCC(CC(=O)O)c1ccc(Cl)cc1 (stereo not drawn) [baclofen]
Reinforcing effects of cocaine [5]: attenuate the reinforcing effects of cocaine

Compound: NCC(CP(=O)(O)O)c1ccc(Cl)cc1 (stereo not drawn) [phaclofen]
Dopamine release in the ventral pallidum (GABA receptors): increased dopamine release

Compound: pertussis toxin
Effect on GABA-stimulated currents (GABABR1b/GABABR2 [4]; oocytes injected with pertussis toxin 2 ng/oocyte 6 h before voltage clamping): abolished
Block of baclofen-stimulated acidification response (rat GABABR1/rat GABABR2): blocked

K+ (GIRK) currents in response to 100 µM GABA, HEK-293 cells (rat GABABR2 (rat) [6]): 1050 pA
Compound: rat GABABR1a (from UniProt Q9Z0U4 20-960) (receptor)

Magnitude of GIRK currents stimulated by GABA, HEK-293, mean (pA) (rat GABABR2 (rat) [6]): 658 pA
Magnitude of GIRK currents stimulated by GABA, oocytes, mean (nA) (rat GABABR2 (rat) [6]): 1400 nA
agonist-evoked extracellular acidification rate, microphysiometer, co-transfected CHO cells (rat GABABR2 (rat) [6]): 9 fold
Magnitude of GIRK currents stimulated by GABA, HEK-293, mean (pA) (rat GABABR2 (rat) [7]): 470 pA
Magnitude of GIRK currents stimulated by GABA, oocytes, mean (nA) (rat GABABR2 (rat) [7]): 832 nA
Compound: rat GABABR1b (from UniProt Q9Z0U4 164-960) (receptor)

Reference: patent publication US20020156265A1, “DNA encoding a GABABR2 polypeptide and uses thereof” (priority 1998, published 2002)
